Measured values from US8597646B2, “Methods and compositons featuring TGF-beta antagonists for the treatment of marfan syndrome and associated disorders” (The Johns Hopkins University, priority 2005, dated 2013).
“Also recorded” adds a separate entry of the source.

Tests used:
Assay type in all cases: in vivo, mouse
Fbn1C1039G/+ mice [1] = assay: Prenatal treatment with losartan and propranolol, aorta of Fbn1C1039G/+ mice; conditions: prenatal start
Text: Treatment of the mothers continued throughout lactation and was maintained in the pups after weaning. Mice were killed at 10 months of age. […] The average aortic wall thickness for untreated wild-type animals was smaller than that in placebo-treated Fbn1C1039G/+ mice (P<0.0001) but was indistinguishable from that in losartan-treated Fbn1C1039G/+ mice (P=0.24, FIG. 20E).

Fbn1C1039G/+ mice [2] = assay: Postnatal treatment with losartan and propranolol, aorta of Fbn1C1039G/+ mice
Text: However, before treatment, the aortic diameter in Fbn1C1039G/+ mice was always greater than in untreated wild-type mice (1.59±0.11 mm; P<0.002).
Three independent aortic root measurements were obtained for each mouse every 2 months during the 6 months of treatment. Mice were killed at 8 months of age. […] The aortic root growth rate over this period was less in the wild-type mice than in the placebo-treated Fbn1C1039G/+ mice (P<0.0001, FIG. 21I).

C1039G/+ mice [3] = assay: Aortic root growth by echocardiography in C1039G/+ mice, 4 months of treatment
Method: Markers of TGFβ antagonism have included reduced plasma levels of free TGFβ, reduced intracellular initiation of the TGFβ signaling cascade, and reduced tissue expression of TGFβ-responsive genes. […] Three independent measurements of the aortic root were made from the long axis echo view in systole at each of 3 time points (baseline, 2 and 4 months of treatment; FIG. 8A). All analyses were performed blinded to genotype and treatment arm. […] This represents the first therapeutic strategy for MFS that derives from interrogation of disease pathogenesis and the first possibility for primary prevention of disease manifestations.

C1039G/+ mice [4] = assay: Aortic wall histology (elastic matrix architecture) in treated C1039G/+ mice; conditions: 4 months of treatment

CC(C)NCC(O)COc1cccc2ccccc12 (stereo not drawn) [propranolol]
Aortic dilatation (Fbn1C1039G/+ mice [1]; 10 months): marked aortic dilatation
Aortic wall architecture score (Fbn1C1039G/+ mice [1]; 10 months of treatment): not influenced
Average aortic wall thickness (Fbn1C1039G/+ mice [1]; 10 months of treatment): indistinguishable from that in the placebo group
Elastic fiber fragmentation / architecture (VVG staining) (Fbn1C1039G/+ mice [1]; drinking water, killed at 10 months): observed; also recorded: Marked elastic fiber disruption
Aortic wall / elastic fiber architecture (Fbn1C1039G/+ mice [2]; 6 months of treatment): no discernable effect
Aortic wall thickness (Fbn1C1039G/+ mice [2]; 6 months of treatment): no discernable effect
Aortic root growth rate (Fbn1C1039G/+ mice [2]; during 6 months of treatment): slower rate of aortic root growth than did placebo-treated animals; also recorded: less than that with placebo, yet remains greater than that seen in wild-type mice
TGF-β signaling in aortic media (nuclear pSmad2) (Fbn1C1039G/+ mice [2]; from 7 weeks of age, 6 months): Marked increase in nuclear staining for pSmad2
Elastic fiber fragmentation (VVG staining) (Fbn1C1039G/+ mice [2]; from 7 weeks of age, 6 months, drinking water): diffuse fragmentation of elastic fibers
Aortic growth during the 4 months of treatment (C1039G/+ mice [3]; C1039G/+ mice from 7 weeks of age, losartan 50 mg/kg or propranolol 40 mg/kg, aortic root, echo, placebo 0.44±0.09): 0.22±0.06 mm
Improvement in any parameter (C1039G/+ mice [3]; propranolol dose with the same antihypertensive effect as losartan): little improvement
Elastic matrix architecture / histologic parameters of the aorta (C1039G/+ mice [4]): did not improve
